Article PMC6943527, “Are the Hydantoin-1,3,5-triazine 5-HT6R Ligands a Hope to a Find New Procognitive and Anti-Obesity Drug? Considerations Based on Primary In Vivo Assays and ADME-Tox Profile In Vitro” (Molecules, 2019)
“And” between values parts separate entries of the source, which are not always exact repeats. Equal entries are not always repeated.

Tests used:
[1] = Caco-2 permeability assay; format: in vitro ADME; details: human, Caco-2; 10 µM in apical chamber, 2 h, 37 °C, two experiments; read-out: Caco-2 Papp ± SD
Description: (§1) The Caco-2 (ATCC® HTB-37^TM) cell line was purchased from American Type Culture Collection (ATCC) (Manassas, VG, USA). The cells were cultivated in Dulbecco’s Modified Eagle’s Medium (DMEM) supplemented with 10% fetal bovine serum (FBS) in a humidified atmosphere of 5% CO2. The medium was changed every two days, and the cells were subcultured at 70%–80% confluence. […] The inserts were pretreated first with 50 µL of the medium for two minutes. Next, the 200 µL of cells were seeded at […] concentration per insert in apical compartment, whereas 600 µL was added to the basolateral one. […] TEER (transepithelial electrical resistance) measurements was started from 18 days after seeding by Millicell ERS-2 Volt-Ohm Meter (Merck Millipore, Burlington, MA, USA). […] Then, the monolayer was rinsed with HBSS (Hank’s balanced salt solution) and KMP-10, and the highly permeable reference CFN was added at a 10 µM concentration with the HBSS into the apical chambers. The 600 µL of HBSS was added to the basolateral compartments. Lucifer yellow (5 µM) was also added to the apical chambers as the membrane integrity marker. The plate was placed in the orbital shaker (60 rpm) for 2 h at 37 °C. The compounds’ concentrations in apical and basolateral wells were analyzed using the UPLC-MS method with IS. To confirm the membrane integrity, the fluorescence of lucifer yellow was measured in basolateral compartment by EnSpire multiplate reader (Perkin Elmer, Waltham, MA, USA).
(§2) The apparent permeability Papp was calculated from two experiments according to the following formula [34]:Papp= dc/dt × V/(A × C0)(1) where: • dc/dt—the change in concentration in the receiving compartment over time • V—volume of the solution in the receiving compartment (mL) • A—surface area of the membrane (cm^2) • C0—the initial concentration in the donor compartment (µM).

Caco-2 cells = assay: Caco-2 permeability assay; format: in vitro ADME
Description: as §1, §2

CYP3A4 = molecular target: T1, CYP3A4 (Homo sapiens, UniProt P08684); assay: CYP3A4 P450-Glo drug-drug interaction assay; format: in vitro ADME
T1 construct: purchased Promega (Madison, WI, USA)
T1 sequence (P08684 whole entry): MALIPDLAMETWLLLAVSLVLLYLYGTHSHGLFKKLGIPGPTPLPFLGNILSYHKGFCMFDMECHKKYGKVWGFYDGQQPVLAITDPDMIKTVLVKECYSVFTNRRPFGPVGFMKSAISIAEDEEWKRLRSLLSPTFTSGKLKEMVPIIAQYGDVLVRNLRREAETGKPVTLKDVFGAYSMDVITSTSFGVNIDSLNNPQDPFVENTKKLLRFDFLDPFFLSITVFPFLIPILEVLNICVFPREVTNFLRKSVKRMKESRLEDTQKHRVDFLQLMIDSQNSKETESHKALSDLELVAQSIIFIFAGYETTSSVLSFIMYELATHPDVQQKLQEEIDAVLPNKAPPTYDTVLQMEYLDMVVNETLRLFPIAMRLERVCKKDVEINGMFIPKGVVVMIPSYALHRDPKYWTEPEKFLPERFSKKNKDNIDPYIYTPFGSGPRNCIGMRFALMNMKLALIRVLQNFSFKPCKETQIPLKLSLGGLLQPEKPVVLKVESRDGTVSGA
Description: The influence of triazine derivatives on two the most involved in drug metabolism CYP (cytochrome P450) isoforms CYP3A4 and CYP2D6 was also investigated.
The study was performed using the CYP3A4 P450-Glo^TM and CYP2D6 P450-Glo^TM commercial tests provided by Promega (Madison, WI, USA). The influence of compounds on CYPs activity was tested in white polystyrene, flat-bottom Nunc^TM MicroWell^TM 96-well microplates (Thermo Scientific, Waltham, MA USA), and the bioluminescence signal was measured with a microplate reader (EnSpire) in luminescence mode, as described previously. KMP-10 and DJ-18 were tested in triplicate in the range of 0.01–25 µM for both isoforms’ P450 cytochrome. KE and QD were used as the reference compounds for CYP3A4 and CYP2D6, respectively.

hepatoma HepG2 cell line = assay: Hepatotoxicity assay, HepG2 cell viability; format: cell-based; details: HepG2, 0.1-100 µM, 72 h
Description: The cell-based assays were used to investigate safety of the 5-HT6R ligands. […] During the same study, no effect for KMP-10 was observed. Additional safety tests with the hepatoma HepG2 cell line were performed here to estimate the compounds’ hepatotoxicity. A slight antiproliferative effect was observed only for DJ-18 at 100 µM, where the cell viability was decreased to up to ~83% of the control (Figure 9a).
Hepatotoxicity was estimated using the hepatoma HepG2 (ATCC® HB-8065^TM) cell line according to previously described protocols. The CellTiter 96® AQueous Non-Radioactive Cell Proliferation Assay was obtained from Promega (Madison, WI, USA). The compounds were investigated in quadruplicate at four concentrations (0.1–100 µM) for 72h. The antiproliferative drug DX was used as a positive control at a dose of 1 µM.

5-HT1A = molecular target: 5-HT1A; design: method as in PMID 30282913; details: radioligand binding, average of at least two independent experiments; read-out: Ki 5-HT1A [3H]-8-OH-DPAT; cited from earlier work
5-HT2A = molecular target: 5-HT2A; design: method as in PMID 30282913; details: radioligand binding, average of at least two independent experiments; read-out: Ki 5-HT2A [3H]-Ketanserin; cited from earlier work
5-HT7 = molecular target: 5-HT7; design: method as in PMID 30282913; details: radioligand binding, average of at least two independent experiments; read-out: Ki 5-HT7 [3H]-5-CT; cited from earlier work
[2] = test system: human embryonic kidney (HEK)-293 cells; design: method as in PMID 30282913; details: highest concentration 100 µM; cited from earlier work
[3] = design: method as in PMID 30530073; details: QikProp, Schrödinger Suite; cited from earlier work
[4] = design: method as in PMID 30282913; details: "conditional" anxiety-like assay; cited from earlier work
[5] = design: method as in PMID 30282913; details: cited from earlier work
[6] = Plasma protein binding, TRANSIL XL PPB assay; details: human, immobilized HSA and AGP at 24:1 (TRANSIL XL PPB assay)
Description: (§3) The immobilized HSA and AGP used in this study was included in the commercial test TRANSIL^XL PPB (plasma protein binding) assay.
(§4) The study was performed with use of the commercial TRANSIL^XL PPB Assay (Sovicell, Leipzig, Germany). The test was performed according to recommendations from the protocol provided by the manufacturer. […] Next, the plate was centrifugated at 750 g for 10 min. The supernatants were collected and analyzed by LC/MS.
(§5) The total fraction bound was estimated by:(3) fb=1−1/1+[HSA]/KDHSA+[AGP]/KDAGP

[7] = test system: human serum albumin (HSA) and α1-acid glycoprotein (AGP); assay: Plasma protein binding, TRANSIL XL PPB assay
Description: as §3, §4, §5

[8] = Parallel artificial membrane permeability assay (PAMPA)

CN1CCN(c2nc(N)nc(CN3C(=O)NC(C)(c4ccc5ccccc5c4)C3=O)n2)CC1 (stereo not drawn) [KMP-10, 3-((4-amino-6-(4-methylpiperazin-1-yl)-1,3,5-triazin-2-yl)methyl)-5-methyl-5-(naphthalen-2-yl)imidazolidine-2,4-dione]
Papp at 2 h, 10 µM [1]: 6.27 ± 0.3 ×10⁻⁶ cm/s
Caco-2 permeability classification (Caco-2 cells; bands: Papp <2 low, 2-20 moderate, >20 × 10^−6 cm/s high): moderate permeability
Caco-2 absorption, fold weaker than caffeine (Caco-2 cells; vs caffeine): 3 fold
Effect on CYP3A4 activity (CYP3A4; highest used dose of 25 µM): slight stimulation effect
Influence on CYP3A4 (CYP3A4; summary in comparison to SUVN-502): almost no influence
Hepatotoxic character (hepatoma HepG2 cell line): did not show any hepatotoxic character
Ki (5-HT1A): 14.2 µM
Ki (5-HT2A): 17.2 µM
Ki (5-HT7): 0.514 µM
HEK-293 cells viability [2]: no effect
QPlogBB [3]: −0.92
Anxiolytic-like effects in Vogel-conflict test [4]: confirmed
Antidepressive-like properties in the Porsolt model [5]: antidepressive-like properties
fraction unbound at 12 min, 5 µM [6]: 0.155
PPB KD ([7]; immobilized HSA and AGP 24:1, 5 µM compound): 112 µM
PPB KD, fold higher than warfarin ([7]; vs warfarin): ~ 10 fold
Papp at 5 h, 200 µM ([8]; PAMPA, pH 7.4): 3.76 ± 0.76 ×10⁻⁶ cm/s
PAMPA permeability, fold weaker than caffeine ([8]; vs caffeine): ~ 4 fold and 4 fold
